Drawing on ChEMBL document CHEMBL1141774, “Benzopyran, biphenyl, and tetraoxygenated xanthone derivatives from the twigs of Garcinia nigrolineata” (2005), this text covers MIC for 3 compounds.

The subject of this experiment is Staphylococcus aureus. Nature of the experiment: Antibacterial activity against methicillin-resistant Staphylococcus aureus. Type of experiment: functional.

≈ marks a conversion by molar mass, not a printed value.

For `CC(C)=CCc1c(O)cc2oc3c(O)c4c(cc3c(=O)c2c1O)C=CC(C)(C)O4` [LASTIXANTHONE D], it took 2 µg/mL (≈ 5.07 µM) to inhibit growth (MIC).
Regarding `CC1(C)C=Cc2c(cc(O)c3c(=O)c4cc(O)ccc4oc23)O1` [NIGROLINEAXANTHONE F], the MIC (as a rule, the lowest concentration found to suppress growth) turned out to be 2 µg/mL (≈ 6.45 µM).
In the case of `CC(C)=CCc1c(O)cc2oc3c(O)ccc(CCC(C)(C)O)c3c(=O)c2c1O` [NIGROLINEAXANTHONE N], inhibition of growth (MIC) required 4 µg/mL (≈ 10 µM).
